In patent publication US6143715A, “Hepatitis C inhibitor peptide analogues” (priority 1998, dated 2000):
Where two headings read alike, the source gives them in different places. Starred links: 1 amine or outer side, 2 acyl side, 3 side chain; linkers in the order of their positions; H or OH if unused. Non-standard residues stand in square brackets, D forms with d. Residues, ends and D or L forms follow the SMILES beside them. ξ: configuration not given here. *: point of attachment. NH(1S-phenylethyl) = C[C@H](N*)c1ccccc1; Hyp = O=C(O)[C@@H]1C[C@@H](O)CN1; azaNva = CCCN(N[*:1])C(=O)[*:2]; AzaAla = CN(N[*:1])C(=O)[*:2]; X10 = C=CCN(N[*:1])C(=O)[*:2]; X7 = CCCCCN(N[*:1])C(=O)[*:2]; X2 = CCCN(N*)C(=O)OCc1ccccc1; X5 = CCCN(N*)C(=O)CCc1ccccc1; X6 = CCCC(N*)C(=O)CCc1ccccc1; Nva = CCC[C@H](N)C(=O)O; NHBn = c1ccc(CN*)cc1; ξNva = CCCC(N)C(=O)O; ξAbu = CCC(N)C(=O)O; Bn = c1ccc(C*)cc1; CF3 = FC(F)(F)*

Columns and labels:
[1] = test system: HCV; conditions: as described in WO 97/06804; cited from earlier work
[2] = molecular target: T1, HCV NS3 protease type 1b/NS4A cofactor peptide (Hepatitis C virus genotype 1b, UniProt P26663); experiment: biochemical; parameters: species or system hepatitis C virus (HCV) genotype 1b
T1 construct: recombinant HCV NS3 protease (amino acid 1027 to 1206) was cloned; made in house; host or cells: E. coli BL21(DE3)pLysS
Source text: a) Cloning, expression and purification of the recombinant HCV NS3 protease type lb
Serum from an HCV-infected patient was obtained through an external collaboration (Bernard Willems MD, Hopital St-Luc, Montreal, Canada and Dr. Donald Murphy, Laboratoire de Sante Publique du Quebec, Ste-Anne de Bellevue, Canada). An engineered full-length cDNA template of the HCV genome was constructed from DNA fragments obtained by reverse transcription-PCR (RT-PCR) of serum RNA and using specific primers selected on the basis of homology between other genotype lb strains. […] A DNA fragment encoding the polyprotein precursor (NS3/NS4A/NS4B/NS5A/NS5B) was generated by PCR and introduced into eucaryotic expression vectors.
The NS3 protease expression in E. coli BL21(DE3)pLysS was induced by incubation with 1 mM IPTG for 3 h at 22° C. […] The cells were resuspended in lysis buffer (3.0 mL/g) consisting of 25 mM sodium phosphate, pH 7.5, 10% glycerol (v/v), 1 mM EDTA, 0.01% NP-40 and stored at -80° C. Cells were thawed and homogenized following the addition of 5 mM DTT. Magnesium chloride and DNase were then added to the homogenate at final concentrations of 20 mM and 20 μg/mL respectively. After a 25 min incubation at 4° C., the homogenate was sonicated and centrifuged at 15000× g for 30 min at 4° C. The pH of the supernatant was then adjusted to 6.5 using a 1M sodium phosphate solution.
Briefly, the supernatant from the bacterial extract was loaded on a SP HiTrap column (Pharmacia) previously equilibrated at a flow rate of 2 mL/min in buffer A (50 mM sodium phosphate, pH 6.5, 10% glycerol, 1 mM EDTA, 5 mM DTT, 0.01% NP-40). The column was then washed with buffer A containing 0.15 M NaCl and the protease eluted by applying 10 column volumes of a linear 0.15 to 0.3 M NaCl gradient. NS3 protease-containing fractions were pooled and diluted to a final NaCl concentration of 0.1 M. The enzyme was further purified on a HiTrap Heparin column (Pharmacia) equilibrated in buffer B (25 mM sodium phosphate, pH 7.5, 10% glycerol, 5 mM DTT, 0.01% NP-40). The sample was loaded at a flow rate of 3 mL/min. The column was then washed with buffer B containing 0.15 M NaCl at a flow rate of 1.5 mL/min. Two step washes were performed in the presence of buffer B containing 0.3 or 1M NaCl. […] Finally, the NS3 protease-containing fractions were applied on a Superdex 75 HiLoad 16/60 column (Pharmacia) equilibrated in buffer B containing 0.3 M NaCl.
The enzyme was stored at -80° C. and was thawed on ice and diluted just prior to use.
Recombinant HCV NS3 Protease/NS4A Cofactor Peptide Radiometric Assay
The enzyme was stored at -80° C., thawed on ice and diluted just prior to use in the assay buffer containing the NS4A cofactor peptide.
The substrate used for the NS3 protease/[…] cofactor peptide radiometric assay, DDIVPC-SMSYTW, is cleaved between the cysteine and the serine residues by the enzyme. The sequence DDIVPC-SMSYTW corresponds to the NS5A/NS5B natural cleavage site in which the cysteine residue in […] has been substituted for a proline. […] (molar ratio enzyme: cofactor 1:100) in the absence or presence of inhibitors. The separation of substrate from products is performed by adding avidin-coated agarose beads to the assay mixture followed by filtration.
Assay buffer: 50 mM Tris HCl, pH 7.5, 30% (w/v) glycerol, 1 mg/mL BSA, 1 mM TCEP (TCEP added just prior to use from a 1 M stock solution in water)
Substrate: […], […] final concentration (from a 2 mM stock solution in DMSO stored at -20° C. to avoid oxidation).

[3] = molecular target: T2, human leukocyte elastase (Homo sapiens, UniProt P08246); experiment: Specificity assay, human leukocyte elastase (pNA substrate); assay type: biochemical
T2 sequence (P08246 30-267): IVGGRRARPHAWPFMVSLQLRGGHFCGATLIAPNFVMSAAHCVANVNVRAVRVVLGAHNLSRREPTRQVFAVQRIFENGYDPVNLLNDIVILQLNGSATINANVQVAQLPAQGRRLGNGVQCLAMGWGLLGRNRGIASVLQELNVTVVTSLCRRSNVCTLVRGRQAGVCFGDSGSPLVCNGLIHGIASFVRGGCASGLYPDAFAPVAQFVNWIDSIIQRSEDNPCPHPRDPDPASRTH
Description: The specificity of the compounds was determined against a variety of serine proteases: human leukocyte elastase, porcine pancreatic elastase and bovine pancreatic α-chymotrypsin and one cysteine protease: human liver cathepsin B. In all cases a 96-well plate format protocol using a […] p-nitroanilide (pNA) substrate specific for each enzyme was used. Each assay included a 1 h enzyme-inhibitor pre-incubation at 30° C. followed by addition of substrate and hydrolysis to ≈30% conversion as measured on a UV Thermomax® microplate reader. Substrate concentrations were kept as low as possible compared to KM to reduce substrate competition. […] The final conditions for each assay were as follows:
(§1) 50 mM Tris-HCl pH 8, 0.5 M Na2 SO4, 50 mM NaCl, 0.1 mM EDTA, 3% DMSO, 0.01% Tween-20 with;
All other specificity assays were performed in a similar fashion.
(§2) The percentage of inhibition was calculated using the formula:
(§3) [1-(UVinh -UVblank)/(UVctl -UVblank))]×100

[4] = molecular target: porcine pancreatic elastase (Sus scrofa, UniProt P00772); experiment: Specificity assay, porcine pancreatic elastase (pNA substrate); assay type: biochemical
Description: The specificity of the compounds was determined against a variety of serine proteases: human leukocyte elastase, porcine pancreatic elastase and bovine pancreatic α-chymotrypsin and one cysteine protease: human liver cathepsin B. In all cases a 96-well plate format protocol using a calorimetric p-nitroanilide (pNA) substrate specific for each enzyme was used. Each assay included a 1 h enzyme-inhibitor pre-incubation at 30° C. followed by addition of substrate and hydrolysis to ≈30% conversion as measured on a UV Thermomax® microplate reader. Substrate concentrations were kept as low as possible compared to KM to reduce substrate competition. […] The final conditions for each assay were as follows:
A representative example is summarized below for porcine pancreatic elastase:
In a polystyrene flat-bottom 96-well plate were added using a Biomek liquid handler (Beckman):
40 μL of assay buffer (50 mM Tris-HCl pH 8, 50 mM NaCl, 0.1 mM EDTA);
20 μL of enzyme solution (50 mM Tris-HCl pH 8, 50 mM NaCl, 0.1 mM EDTA, 0.02% Tween-20, 40 nM porcine pancreatic elastase); and

[5] = molecular target: bovine pancreatic α-chymotrypsin (Bos taurus, UniProt P00766, DEL14-15/DEL147-148); experiment: Specificity assay, bovine pancreatic α-chymotrypsin (pNA substrate); assay type: biochemical; conditions: 1 h enzyme-inhibitor pre-incubation at 30° C., Succ-AAPF-pNA
Description: The final conditions for each assay were as follows:
as §1, §2, §3

[6] = molecular target: human liver cathepsin B (Homo sapiens, UniProt P07858); experiment: biochemical
Description: The specificity of the compounds was determined against a variety of serine proteases: human leukocyte elastase, porcine pancreatic elastase and bovine pancreatic α-chymotrypsin and one cysteine protease: human liver cathepsin B. In all cases a 96-well plate format protocol using a calorimetric p-nitroanilide (pNA) substrate specific for each enzyme was used. Each assay included a 1 h enzyme-inhibitor pre-incubation at 30° C. followed by addition of substrate and hydrolysis to ≈30% conversion as measured on a UV Thermomax® microplate reader. Substrate concentrations were kept as low as possible compared to KM to reduce substrate competition.

[7] = molecular target: NS3 protease (Hepatitis C virus genotype 1b, UniProt P26663); experiment: Inhibition of NS3 protease by N-terminal cleavage product; assay type: biochemical; conditions: N-terminal cleavage product of an analogue of a natural substrate
[8] = 1 h enzyme-inhibitor pre-incubation at 30° C., Succ-AAV-pNA
[9] = 1 h enzyme-inhibitor pre-incubation at 30° C., Succ-AAA-pNA

Chain of porcine pancreatic elastase (P00772 27-266): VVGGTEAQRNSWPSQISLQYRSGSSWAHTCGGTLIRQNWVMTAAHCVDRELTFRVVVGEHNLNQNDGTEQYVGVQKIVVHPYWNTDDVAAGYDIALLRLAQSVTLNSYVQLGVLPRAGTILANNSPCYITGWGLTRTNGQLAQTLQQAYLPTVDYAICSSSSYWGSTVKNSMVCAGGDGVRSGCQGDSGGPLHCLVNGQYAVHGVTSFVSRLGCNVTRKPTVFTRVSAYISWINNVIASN
T1 sequence (P26663 1027-1206, other chains not shown): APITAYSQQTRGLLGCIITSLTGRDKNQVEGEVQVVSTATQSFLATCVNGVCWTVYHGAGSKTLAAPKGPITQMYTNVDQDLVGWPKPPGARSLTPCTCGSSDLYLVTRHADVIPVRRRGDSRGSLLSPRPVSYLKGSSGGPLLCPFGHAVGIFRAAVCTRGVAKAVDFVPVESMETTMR
Chain of NS3 protease (P26663 1027-1206): as the sequence (P26663 1027-1206, other chains not shown) above

| Compound | IC50 [2] [µM] | IC50 [3, 8] [µM] | further results |
| --- | --- | --- | --- |
| Nc1ccn([C@@H]2CS[C@H](CO)O2)c(=O)n1 (single isomer, unassigned) [3TC, (-) enantiomer of the nucleoside analogue cytosine-1,3-oxathiolane] |  |  | active against HCV [1]: active against HCV |
| CCCC(NC(=O)[C@@H]1C[C@@H](OCc2ccccc2)CN1C(=O)[C@@H](NC(=O)[C@@H](NC(=O)[C@@H](CCC(=O)O)NC(=O)[C@H](CC(=O)O)NC(C)=O)[C@@H](C)CC)C(C)C)P(=O)(Oc1ccccc1)Oc1ccccc1 (single isomer, unassigned) [Compound 301] |  |  | IC50 ([2]; IC50: concentration required to obtain 50% inhibition in the NS3 protease/NS4A cofactor peptide radiometric assay, enzyme:cofactor 1:100, 40 min at 23° C.): 0.029 µM; IC50 [3]: < 0.6 µM; IC50 [4]: < 0.6 µM; IC50 [5]: 3 µM; IC50 [6]: > 300 µM |
| CCC(NC(=O)[C@@H]1C[C@@H](OCc2ccccc2)CN1C(=O)[C@@H](NC(=O)[C@@H](NC(=O)[C@@H](CCC(=O)O)NC(=O)[C@H](CC(=O)O)NC(C)=O)[C@@H](C)CC)C(C)C)C(=O)C(F)(F)F (stereo partly drawn) [Compound 101] (Ac-D[dE]IV[Hyp](Bn)[ξAbu]-CF3) | 9.4 | < 1.2 |  |
| CCCC(C=O)NC(=O)[C@@H]1C[C@@H](OCc2ccccc2)CN1C(=O)[C@@H](NC(=O)[C@@H](NC(=O)[C@@H](CCC(=O)O)NC(=O)[C@H](CC(=O)O)NC(C)=O)[C@@H](C)CC)C(C)C (stereo partly drawn) [Compound 104] (Ac-D[dE]IV[Hyp](Bn)[ξNva]-aldehyde) | 0.14 | 7 | IC50 [4, 9]: 8 µM; IC50 [5]: 8 µM |
| CCCC(NC(=O)[C@@H]1C[C@@H](OCc2ccccc2)CN1C(=O)[C@@H](NC(=O)[C@@H](NC(=O)[C@@H](CCC(=O)O)NC(=O)[C@H](CC(=O)O)NC(C)=O)[C@@H](C)CC)C(C)C)C(=O)CCc1ccccc1 (stereo partly drawn) [Compound 106] (Ac-D[dE]IV[Hyp](Bn)-X6) | 5.4 |  | IC50 [3]: 16 µM |
| CCC[C@H](NC(=O)[C@@H]1C[C@@H](OCc2ccccc2)CN1C(=O)[C@@H](NC(=O)[C@@H](NC(=O)[C@@H](CCC(=O)O)NC(=O)[C@H](CC(=O)O)NC(C)=O)[C@@H](C)CC)C(C)C)C(=O)N[C@@H](C)c1ccccc1 [Compound 108] (Ac-D[dE]IV[Hyp](Bn)[Nva]-{NH(1S-phenylethyl)}) | 0.71 | 3 | IC50 [4, 9]: > 300 µM; IC50 [5]: > 300 µM |
| CCCC(NC(=O)[C@@H]1C[C@@H](OCc2ccccc2)CN1C(=O)[C@@H](NC(=O)[C@@H](NC(C)=O)C1CCCCC1)C(C)C)C(=O)C(=O)NCc1ccccc1 (stereo partly drawn) [Compound 109] | 23 | 2 |  |
| CCCN(NC(=O)[C@@H]1C[C@@H](OCc2ccccc2)CN1C(=O)[C@@H](NC(=O)[C@@H](NC(=O)[C@@H](CCC(=O)O)NC(=O)[C@H](CC(=O)O)NC(C)=O)[C@@H](C)CC)C(C)C)C(=O)NCC(=O)OCC [Compound 201] (Ac-D[dE]IV[Hyp](Bn)[azaNva]G-OEt) | 3.9 | 27.4 | IC50 [4, 9]: 168 µM |
| CCCN(NC(=O)[C@@H]1C[C@@H](OCc2ccccc2)CN1C(=O)[C@@H](NC(=O)[C@@H](NC(=O)[C@@H](CCC(=O)O)NC(=O)[C@H](CC(=O)O)NC(C)=O)[C@@H](C)CC)C(C)C)C(=O)CCc1ccccc1 [Compound 202] (Ac-D[dE]IV[Hyp](Bn)-X5) | 0.63 | 5.5 |  |
| CCCN(NC(=O)[C@@H]1C[C@@H](OCc2ccccc2)CN1C(=O)[C@@H](NC(=O)[C@@H](NC(=O)[C@@H](CCC(=O)O)NC(=O)[C@H](CC(=O)O)NC(C)=O)[C@@H](C)CC)C(C)C)C(=O)OCc1ccccc1 [Compound 206] (Ac-D[dE]IV[Hyp](Bn)-X2) | 0.79 | < 0.6 | IC50 [4, 9]: < 0.6 µM |
| CCCN(NC(=O)[C@@H]1C[C@@H](OCc2ccccc2)CN1C(=O)[C@@H](NC(=O)[C@@H](NC(C)=O)C1CCCCC1)C(C)C)C(=O)N[C@@H](C)c1ccccc1 [Compound 215] | 45 | 5 |  |
| CCCCCN(NC(=O)[C@@H]1C[C@@H](OCc2ccccc2)CN1C(=O)[C@@H](NC(=O)[C@@H](NC(=O)[C@@H](CCC(=O)O)NC(=O)[C@H](CC(=O)O)NC(C)=O)[C@@H](C)CC)C(C)C)C(=O)N[C@@H](C)c1ccccc1 [Compound 219] (Ac-D[dE]IV[Hyp](Bn)[X7]-{NH(1S-phenylethyl)}) | 0.43 | 151 |  |
| CC[C@H](C)[C@H](NC(=O)[C@@H](CCC(=O)O)NC(=O)[C@H](CC(=O)O)NC(C)=O)C(=O)N[C@H](C(=O)N1C[C@H](OCc2ccccc2)C[C@H]1C(=O)NN(C)C(=O)N[C@@H](C)c1ccccc1)C(C)C [Compound 221] (Ac-D[dE]IV[Hyp](Bn)[AzaAla]-{NH(1S-phenylethyl)}) | 0.52 | 168 |  |
| C=CCN(NC(=O)[C@@H]1C[C@@H](OCc2ccccc2)CN1C(=O)[C@@H](NC(=O)[C@@H](NC(=O)[C@@H](CCC(=O)O)NC(=O)[C@H](CC(=O)O)NC(C)=O)[C@@H](C)CC)C(C)C)C(=O)NCc1ccccc1 [Compound 234] (Ac-D[dE]IV[Hyp](Bn)[X10]-NHBn) | 3.7 |  |  |
| Ac-DDIVPC-OH [Ac-D-D-I-V-P-C-OH] |  |  | inhibitory to the NS3 protease [7]: inhibitory |
